Reference: US10604476B2, “Fluorinated amide derivatives and their uses as therapeutic agents” (Trillium Therapeutics Inc., priority 2015, dated 2020)

Experiments:
[1] = system: maximal electroshock seizure; test: Maximal Electroshock Seizure (MES) rat model; type: in vivo; conditions: po, 0.5 hour
Protocol: Male, Sprague-Dawley rats and CD-1 mice were used for all studies. All animals were allowed ad-lib access to food and water except during experiment. Animals were housed within an animal vivarium maintained under a 12 h light:dark cycle (lights on: 07:00 h), and all experiments were conducted in the animals light phase. For all experiments, animals were habituated to the vivarium for a minimum of 72 h before experimentation. The experimental procedures used in the present investigation were conducted under the Association for Assessment and Accreditation of Laboratory Animal Care (AAALAC) and the Canadian Council on Animal Care (CCAC) guidelines. All compounds were sonicated in 5% Tween 80® in saline or methylcellulose 0.5% (wgt/vol), using MC and sterile water and injected in a dose volume of 5 ml/kg or 10 ml/kg (rat), and 10 ml/kg (mouse). Drugs were administered by either the oral, intraperitoneal or intravenous route. Male Sprague-Dawley rats of body weight 80-100 g were used for these studies. Each experiment was conducted over 3 consecutive days. On day 1 and 2, each rat received a single electrical stimulus (150 mA, 0.2 s duration, 60 Hz) via corneal electrodes moistened with saline (Shock stimulator type 221: Harvard apparatus). […] Typically this reflected approximately 70-90% of the initial group. […] On the test day following a defined drug pretreatment period, rats received a maximal electroshock (150 mA, 0.2 s duration, 60 Hz) via corneal electrodes. Protection was defined as absence of a full tonic seizure within 10 s of stimulus delivery. Twenty minutes before the MES procedure, the animals were tested on a fixed speed rotorod (best score from 3 trials at 8 r.p.m, trial duration=60 s) to give an early assessment of drug effect on gross motor function.

[2] = system: formalin-induced paw licking; test: Mouse formalin test; type: in vivo; conditions: 41 mg/kg i.p.; most pronounced in second (late) phase
Protocol: The formalin test is performed according to the method of Tjolsen et al. Pain, 1992. 51(1). An injection of 0.5% formalin (Sigma) is made into the planter region of the right hind paw of an adult (26-30 g) male CF-1 mouse. Sub-dermal formalin injection elicits a distinct behavioral profile characterized by the mouse licking the affected paw. The behavior is characteristically biphasic in nature. For example, immediately following the injection the mouse licks the paw intensely for approximately 10 min. This is referred to as phase 1 (or, the acute phase) and is followed by a brief latent period (<5 minutes) where there is little behavioral activity. A more prolonged period of about 20-30 min of activity then ensues, which constitutes phase 2 (or, the inflammatory phase). […] The area under the curve (AUG) is calculated for both the acute and inflammatory phases of the licking response for individual animals in both the test and control groups. The percent of control AUG for drug-treated animal groups is determined using the Graph-Pad Prism Version 3.03. The total AUG for each phase of the test group is also calculated and converted to percentage of total AUG of control for each phase. The average and S.E.M. for both the drug treated and control percentages are calculated and tested for significant difference.

Row | SMILES | ED50 [1] | number of paw licks [2]
1 | C[C@@H](Oc1cc(Cl)cc(C(F)(F)F)c1)C(N)=O [I(D), (2R)-2-[3-chloro-5-(trifluoromethyl)-phenoxy]propanamide] | 22.7 mg/kg | 
2 | NC(=O)COc1cc(C(F)(F)F)cc(C(F)(F)F)c1 [I(F), 2-[3,5 bis(trifluoromethyl)-phenoxy]acetamide;] | 18.4 mg/kg | significant decrease
